One data set deals with Meloidogyne incognita. Briefly: Critical concentration test (soil treatment, lettuce root galls). Format: in vivo. The conditions noted are these: active compound concentration of 20 ppm in soil, greenhouse 25° C., evaluated after three weeks. As for the experimental part: Critical Concentration Test [table] To produce a suitable preparation of active compound, 1 part by weight of active compound is mixed with the stated amount of solvent, the stated amount of emulsifier is added and the concentrate is diluted to the desired concentration. The preparation of active compound is intimately mixed with the soil which is contaminated with the test nematodes. The concentration of the active compound in the preparation is here virtually unimportant, only the amount of active compound per volume unit of soil, which is stated in ppm (=mg/l), is decisive. The treated soil is filled into pots, lettuce is sown in and the pots are kept at a greenhouse temperature of 25° C. After three weeks, the roots of the lettuces are examined for infestation by nematodes (root galls), and the efficacy of the active compound in % is determined. The efficacy is 100% when infestation is avoided completely and 0% when the infestation level is just as high as in the control plants in untreated, but equally infested, soil.

The term melting point denotes the temperature of the solid-liquid transition.

Take `CC(=NC#N)NC(C)c1ccc(Cl)cc1` (centres unmarked) [Preparation Example 1, [R]-N-cyano-N′-(4-chlorophenyl-eth-1-yl)-ethaneimidamide]: the melting point amounted to 125 °C. Besides, the “kill (efficacy of the active compound in %)” value in the data set on Meloidogyne incognita worked out at 100%.

Source of the values: patent US6638979B1, “Imidamide derivatives” (Bayer Aktiengesellschaft, priority 1998, dated 2003).
